# According to patent US20120270819A1, “USE OF COMPOUNDS WITH SGLT-1/SGLT-2 INHIBITOR ACTIVITY FOR PRODUCING MEDICAMENTS FOR TREATMENT OF BONE DISEASE” (SANOFI, priority 2009, published 2012):
# Experiments:
# [1] = test system: female Sprague-Dawley mature and young adult rats; assay: Ex vivo pQCT of L3 and L4 lumbar vertebrae; assay type: in vivo, rat; conditions: L3 + L4 vertebral bodies; for pQCT Total Area / pQCT Total BMC / pQCT Total BMD / pQCT Trabecular Area / pQCT Trabecular BMC / pQCT Trabecular BMD: mean
# Procedure: Peripheral QCT scans were performed ex vivo using an XCT Research SA or SA+ bone scanner with software version 5.50D. Scans were obtained for the right femur, L3 and L4 lumbar vertebra for all animals euthanized at the end of the treatment period as well as two found dead animals. These two animals were scanned twice due to technical oversight, however only the first scans obtained were reported and the second scans were kept with the study file, this had no impact on the study as both scans were considered equivalent.
# For the vertebrae, the scans were obtained at the midpoint. The L3 vertebrae from four animal and L4 vertebrae from four animals were damaged at trimming and L4 vertebrae from one animal was lost during trimming, consequently, no scans were obtained on these vertebrae. Additional slices were obtained as considered appropriate to ensure the optimal scans and data acquisition.
# All analyses were performed using the LOOP option of the analysis software. All other data generated as a result of the LOOP option were retained with the raw data but not reported. The most appropriate analysis mode for the femur and the lumbar vertebrae was used and documented in the raw data and the analysis details are presented in Table 6. All scan analysis data was retained and re-analyses documented.
# [2] = test system: female Sprague-Dawley mature and young adult rats; assay: Biomechanical testing: L3, L4 vertebral compression; assay type: in vivo, rat
# Procedure: Biomechanical testing was performed using an 858 Mini Bionix Servohydraulic Test System, Model 242.03. All data was collected using TestWorks® version 3.8A for TestStar™ software, version 4.0C.
# At necropsy, all specimens were cleaned of excess tissue (not scraped) and individually wrapped in gauze soaked with saline, covered with plastic film and placed in an appropriately labelled plastic bag. Bone samples were retained frozen (ca −20° C.) until subjected to the following biomechanical evaluations:
# For compression testing, the vertebral body of the vertebrae was isolated by removing the vertebral arch and removing both inter-vertebral discs. The section obtained had two parallel cut surfaces and the trabecular bone exposed.
# The L3 and L4 vertebral body were tested in compression to failure. The loading rate was set at 20 mm/min. Load and displacement data were collected and apparent strength and modulus were calculated using the peak load, stiffness, individual vertebral body height and cross sectional area from the pQCT scans. The work to failure was determined from the area under the curve (AUC) and toughness was calculated. Yield load was originally derived using a 0.2% off-set however a 0.1% off-set was considered more appropriate and yield stress was calculated. All data derived from the 0.2% off-set yield load was kept with the study file but not reported.
# [3] = L3 + L4 vertebral bodies, mature adults, 10 mg/kg/day
smiles,measurement,setting,value
COc1ccc(Cc2c(OC3OC(CO)C(F)C(O)C3O)n[nH]c2C(F)(F)F)cc1 (centres unmarked) [Example 5 of formula II],"pQCT Total Area, percent difference from Vehicle Control","[1]; mature adults, 10 mg/kg/day",2.3%
same,"pQCT Total BMC, percent difference from Vehicle Control","[1]; mature adults, 10 mg/kg/day",5.9%
same,"pQCT Total BMD, percent difference from Vehicle Control","[1]; mature adults, 10 mg/kg/day",3.6%
same,"pQCT Trabecular Area, percent difference from Vehicle Control","[1]; mature adults, 10 mg/kg/day",2.4%
same,"pQCT Trabecular BMC, percent difference from Vehicle Control","[1]; mature adults, 10 mg/kg/day",9.0%
same,"pQCT Trabecular BMD, percent difference from Vehicle Control","[1]; mature adults, 10 mg/kg/day",6.9%
same,pQCT Total Area,"[1]; mature adults, 10 mg/kg/day",7.7 mm^2
same,pQCT Total BMC,"[1]; mature adults, 10 mg/kg/day",5.6 mg/mm
same,pQCT Total BMD,"[1]; mature adults, 10 mg/kg/day",727.9 mg/cm^3
same,pQCT Trabecular Area,"[1]; mature adults, 10 mg/kg/day",3.5 mm^2
same,pQCT Trabecular BMC,"[1]; mature adults, 10 mg/kg/day",1.7 mg/mm
same,pQCT Trabecular BMD,"[1]; mature adults, 10 mg/kg/day",486.9 mg/cm^3
same,"pQCT Total Area, percent difference from Vehicle Control","[1]; mature adults, 50 mg/kg/day",7.4%
same,"pQCT Total BMC, percent difference from Vehicle Control","[1]; mature adults, 50 mg/kg/day",12.4%
same,"pQCT Total BMD, percent difference from Vehicle Control","[1]; mature adults, 50 mg/kg/day",4.5%
same,"pQCT Trabecular Area, percent difference from Vehicle Control","[1]; mature adults, 50 mg/kg/day",7.5%
same,"pQCT Trabecular BMC, percent difference from Vehicle Control","[1]; mature adults, 50 mg/kg/day",15.1%
same,"pQCT Trabecular BMD, percent difference from Vehicle Control","[1]; mature adults, 50 mg/kg/day",6.8%
same,pQCT Total Area,"[1]; mature adults, 50 mg/kg/day",8.1 mm^2
same,pQCT Total BMC,"[1]; mature adults, 50 mg/kg/day",5.9 mg/mm
same,pQCT Total BMD,"[1]; mature adults, 50 mg/kg/day",734.0 mg/cm^3
same,pQCT Trabecular Area,"[1]; mature adults, 50 mg/kg/day",3.6 mm^2
same,pQCT Trabecular BMC,"[1]; mature adults, 50 mg/kg/day",1.8 mg/mm
same,pQCT Trabecular BMD,"[1]; mature adults, 50 mg/kg/day",486.4 mg/cm^3
same,"pQCT Total Area, percent difference from Vehicle Control","[1]; young adults, 10 mg/kg/day",1.7%
same,"pQCT Total BMC, percent difference from Vehicle Control","[1]; young adults, 10 mg/kg/day",8.5%
same,"pQCT Total BMD, percent difference from Vehicle Control","[1]; young adults, 10 mg/kg/day",6.9%
same,"pQCT Trabecular Area, percent difference from Vehicle Control","[1]; young adults, 10 mg/kg/day",1.6%
same,"pQCT Trabecular BMC, percent difference from Vehicle Control","[1]; young adults, 10 mg/kg/day",10.5%
same,"pQCT Trabecular BMD, percent difference from Vehicle Control","[1]; young adults, 10 mg/kg/day",8.9%
same,pQCT Total Area,"[1]; young adults, 10 mg/kg/day",7.4 mm^2
same,pQCT Total BMC,"[1]; young adults, 10 mg/kg/day",4.9 mg/mm
same,pQCT Total BMD,"[1]; young adults, 10 mg/kg/day",659.9 mg/cm^3
same,pQCT Trabecular Area,"[1]; young adults, 10 mg/kg/day",3.4 mm^2
same,pQCT Trabecular BMC,"[1]; young adults, 10 mg/kg/day",1.6 mg/mm
same,pQCT Trabecular BMD,"[1]; young adults, 10 mg/kg/day",461.6 mg/cm^3
same,"pQCT Total Area, percent difference from Vehicle Control","[1]; young adults, 50 mg/kg/day",−5.1%
same,"pQCT Total BMC, percent difference from Vehicle Control","[1]; young adults, 50 mg/kg/day",2.7%
same,"pQCT Total BMD, percent difference from Vehicle Control","[1]; young adults, 50 mg/kg/day",8.6%
same,"pQCT Trabecular Area, percent difference from Vehicle Control","[1]; young adults, 50 mg/kg/day",−5.0%
same,"pQCT Trabecular BMC, percent difference from Vehicle Control","[1]; young adults, 50 mg/kg/day",2.7%
same,"pQCT Trabecular BMD, percent difference from Vehicle Control","[1]; young adults, 50 mg/kg/day",8.9%
same,pQCT Total Area,"[1]; young adults, 50 mg/kg/day",6.9 mm^2
same,pQCT Total BMC,"[1]; young adults, 50 mg/kg/day",4.7 mg/mm
same,pQCT Total BMD,"[1]; young adults, 50 mg/kg/day",670.6 mg/cm^3
same,pQCT Trabecular Area,"[1]; young adults, 50 mg/kg/day",3.1 mm^2
same,pQCT Trabecular BMC,"[1]; young adults, 50 mg/kg/day",1.4 mg/mm
same,pQCT Trabecular BMD,"[1]; young adults, 50 mg/kg/day",461.9 mg/cm^3
same,Strength parameters at the lumbar spine,[2]; 50 mg/kg/day,positively affected
same,"AUC (work to failure), percent difference from Vehicle Control",[2]; [3],3.5%
same,"Apparent Strength, percent difference from Vehicle Control",[2]; [3],3.4%
same,"Modulus, percent difference from Vehicle Control",[2]; [3],−2.0%
same,"Peak Load, percent difference from Vehicle Control",[2]; [3],6.0%
same,"Stiffness, percent difference from Vehicle Control",[2]; [3],0.9%
same,"Toughness, percent difference from Vehicle Control",[2]; [3],2.0%
same,"Yield Load, percent difference from Vehicle Control",[2]; [3],4.3%
